One data set addresses cathepsin B (Homo sapiens, UniProt P07858). The conditions noted are these: for speed of enzyme digestion: pH range 5.0 to 7.0.
Data set [1] has as its target T1, Tumor-associated calcium signal transducer 2 (UniProt P09758 27-323, limits assumed).
T1 sequence (looked up): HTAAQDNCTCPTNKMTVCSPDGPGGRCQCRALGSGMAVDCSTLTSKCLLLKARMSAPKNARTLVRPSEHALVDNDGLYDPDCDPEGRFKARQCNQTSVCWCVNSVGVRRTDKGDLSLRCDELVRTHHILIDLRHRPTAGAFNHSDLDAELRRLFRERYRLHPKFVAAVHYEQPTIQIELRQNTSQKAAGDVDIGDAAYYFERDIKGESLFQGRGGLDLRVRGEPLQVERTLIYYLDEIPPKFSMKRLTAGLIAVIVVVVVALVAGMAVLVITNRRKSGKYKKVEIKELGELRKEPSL
The experiment in a line: cell-based or functional assay.

Like-named read-outs stand apart in the source and are kept apart here. Numbered stars: 1 amine (or outer) side, 2 acyl side, 3 side chain; on linkers, the order of the positions; unused ones are H or OH. Square brackets hold non-standard residues; d marks the D form. Peptide text beside a SMILES is read from it. * marks the point of attachment. Exatecan = CC[C@@]1(O)C(=O)OCc2c1cc1n(c2=O)Cc2c-1nc1cc(F)c(C)c3c1c2[C@@H](N*)CC3; Hexanoyl(6-maleimido) = O=C1C=CC(=O)N1CCCCCC(=O)*; NHCH2OCH2CO = O=C(COCN[*:1])[*:2]

From the text for cathepsin B: Samples were taken at different time points and entered into a high-performance liquid chromatography-mass spectrometry instrument. The external standard method (with DXD as the external standard) was used to determine the release percentage of the drug.

In the case of `CC[C@@]1(O)C(=O)OCc2c1cc1n(c2=O)Cc2c-1nc1cc(F)c(C)c3c1c2[C@@H](NC(=O)COCN(CCS(C)(=O)=O)C(=O)OCc1ccc(NC(=O)[C@H](C)NC(=O)[C@@H](NC(=O)CCCCCN2C(=O)C=CC2=O)C(C)C)cc1)CC3` [LE14], the “Percentage of drug release in the sample” value on cathepsin B (pH 5.0, 0 h) was 13.82%; on cathepsin B (pH 5.0, 1 h), 96.0%; on cathepsin B (pH 5.0, 2 h), 98.35%; on cathepsin B (pH 5.0, 3 h) it was 99.12%; at cathepsin B (pH 5.0, 4 h), 99.21%; at cathepsin B (pH 5.0, 5 h), 99.45%. Besides, the “Percentage of drug release in the sample” value on cathepsin B (pH 5.0, 6 h) came out at 98.23%; on cathepsin B (pH 6.0, 0 h), 14.32%; on cathepsin B (pH 6.0, 1 h) it was 96.12%; at cathepsin B (pH 6.0, 2 h), 96.75%; on cathepsin B (pH 6.0, 3 h), 98.52%; at cathepsin B (pH 6.0, 4 h), 98.45%. Moreover, the “Percentage of drug release in the sample” value was determined as 98.92% on cathepsin B (pH 6.0, 5 h); 99.15% at cathepsin B (pH 6.0, 6 h); 16.59% on cathepsin B (pH 7.0, 0 h); 98.32% at cathepsin B (pH 7.0, 1 h); 98.45% at cathepsin B (pH 7.0, 2 h); 99.12% on cathepsin B (pH 7.0, 3 h). Further, the “Percentage of drug release in the sample” value at cathepsin B (pH 7.0, 4 h) was 99.12%; on cathepsin B (pH 7.0, 5 h), 99.87%; at cathepsin B (pH 7.0, 6 h), 99.47%. Further, the “speed of enzyme digestion” value at cathepsin B was “quickly enzymatically digested”.
For the molecule `CC[C@@]1(O)C(=O)OCc2c1cc1n(c2=O)Cc2c-1nc1cc(F)c(C)c3c1c2[C@@H](NC(=O)COCNC(=O)CNC(=O)[C@H](Cc1ccccc1)NC(=O)CNC(=O)CNC(=O)CCCCCN1C(=O)C=CC1=O)CC3` [GGFG-Dxd, reference compound] ({Hexanoyl(6-maleimido)}-GGFG[NHCH2OCH2CO]-Exatecan), at cathepsin B, the “speed of enzyme digestion” value is recorded as “slow speed of enzyme digestion”.

B1: FDA018-LE12 (antibody, human IgG1, kappa, V domains shown)
VH: QVQLQQSGSELKKPGASVKVSCKASGYTFTNYGMNWVKQAPGQGLKWMGWINTYTGEPTYTDDFKGRFAFSLDTSVSTAYLQISSLKADDTAVYFCARGGFGSSYWYFDVWGQGSLVTVSS
VL: DIQLTQSPSSLSASVGDRVSITCKASQDVSIAVAWYQQKPGKAPKLLIYSASYRYTGVPDRFSGSGSGTDFTLTISSLQPEDFAVYYCQQHYITPLTFGAGTKVEIKR
modifications: linker-drug LE12 (Dxd payload) coupled to cysteine sulfhydryl groups after reduction of the interchain disulfide bonds; DAR 3.90 for the whole antibody; sites not stated
For the molecule B1, in data set [1], the “IC50 (nM), in vitro killing activity, BXPC3 Cell” value (from here on “IC50 (nM) … BXPC3 Cell”) was determined as 0.68 nM; the “IC50 (nM), in vitro killing activity, MDA-MB-468 Cell” value (“IC50 (nM) … MDA-MB-468 Cell” below) was 1.03 nM; the “IC50 (nM), in vitro killing activity, NCI-N87 Cell” value (“IC50 (nM) … NCI-N87 Cell” below) amounted to 1.12 nM.

B2: FDA018-LE16 (antibody, human IgG1, kappa, V domains shown)
VH: QVQLQQSGSELKKPGASVKVSCKASGYTFTNYGMNWVKQAPGQGLKWMGWINTYTGEPTYTDDFKGRFAFSLDTSVSTAYLQISSLKADDTAVYFCARGGFGSSYWYFDVWGQGSLVTVSS
VL: DIQLTQSPSSLSASVGDRVSITCKASQDVSIAVAWYQQKPGKAPKLLIYSASYRYTGVPDRFSGSGSGTDFTLTISSLQPEDFAVYYCQQHYITPLTFGAGTKVEIKR
modifications: linker-drug LE16 coupled to cysteine sulfhydryl groups after reduction of the interchain disulfide bonds; DAR 4.03 for the whole antibody; sites not stated
Turning to B2, in data set [1], the “IC50 (nM) … BXPC3 Cell” value turned out to be 1.58 nM; the “IC50 (nM) … MDA-MB-468 Cell” value is 1.64 nM; the “IC50 (nM) … NCI-N87 Cell” value worked out at 1.35 nM.

B3: FDA018-LE20 (antibody, human IgG1, kappa, V domains shown)
VH: QVQLQQSGSELKKPGASVKVSCKASGYTFTNYGMNWVKQAPGQGLKWMGWINTYTGEPTYTDDFKGRFAFSLDTSVSTAYLQISSLKADDTAVYFCARGGFGSSYWYFDVWGQGSLVTVSS
VL: DIQLTQSPSSLSASVGDRVSITCKASQDVSIAVAWYQQKPGKAPKLLIYSASYRYTGVPDRFSGSGSGTDFTLTISSLQPEDFAVYYCQQHYITPLTFGAGTKVEIKR
modifications: linker-drug LE20 coupled to cysteine sulfhydryl groups after reduction of the interchain disulfide bonds; DAR 3.88 for the whole antibody; sites not stated
Consider B3, for which the “IC50 (nM) … NCI-N87 Cell” value in data set [1] stood at 1.15 nM.

B4: FDA018-LE17 (antibody, human IgG1, kappa, V domains shown)
VH: QVQLQQSGSELKKPGASVKVSCKASGYTFTNYGMNWVKQAPGQGLKWMGWINTYTGEPTYTDDFKGRFAFSLDTSVSTAYLQISSLKADDTAVYFCARGGFGSSYWYFDVWGQGSLVTVSS
VL: DIQLTQSPSSLSASVGDRVSITCKASQDVSIAVAWYQQKPGKAPKLLIYSASYRYTGVPDRFSGSGSGTDFTLTISSLQPEDFAVYYCQQHYITPLTFGAGTKVEIKR
modifications: linker-drug LE17 coupled to cysteine sulfhydryl groups after reduction of the interchain disulfide bonds; DAR 3.98 for the whole antibody; sites not stated
B4: in data set [1], the “IC50 (nM) … BXPC3 Cell” value was 0.62 nM; the “IC50 (nM) … MDA-MB-468 Cell” value is 0.82 nM; the “IC50 (nM) … NCI-N87 Cell” value is 1.12 nM.

B5: FDA018-LE15 (antibody, human IgG1, kappa, V domains shown)
VH: QVQLQQSGSELKKPGASVKVSCKASGYTFTNYGMNWVKQAPGQGLKWMGWINTYTGEPTYTDDFKGRFAFSLDTSVSTAYLQISSLKADDTAVYFCARGGFGSSYWYFDVWGQGSLVTVSS
VL: DIQLTQSPSSLSASVGDRVSITCKASQDVSIAVAWYQQKPGKAPKLLIYSASYRYTGVPDRFSGSGSGTDFTLTISSLQPEDFAVYYCQQHYITPLTFGAGTKVEIKR
modifications: linker-drug LE15 coupled to cysteine sulfhydryl groups after reduction of the interchain disulfide bonds; DAR 4.12 for the whole antibody; sites not stated
Consider B5, for which, in data set [1], the “IC50 (nM) … BXPC3 Cell” value was determined as 0.96 nM; the “IC50 (nM) … MDA-MB-468 Cell” value was found to be 0.93 nM; the “IC50 (nM) … NCI-N87 Cell” value is 0.98 nM.
